In patent publication US12344610B2, “APOL1 inhibitors and methods of use” (Maze Therapeutics, Inc., priority 2022, dated 2025):

How the values were obtained:
[1] = tested on: HEK293 cells overexpressing APOL1 G2; assay: APOL1 G2 HEK293 cell rescue assay (reversal of cell death caused by overexpression of APOL1); format: cell-based; settings: Homo sapiens, HEK293, HEK293 overexpressing APOL1 G2; geometric mean of at least 2 assay runs; † = single assay run
Method in brief: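 Each compound tested in duplicate wells on one plate per run, with values usually the geometric mean across at least two runs on different days, occasionally from one run only. Read-out: concentration giving half-maximal rescue of APOL1 G2 overexpression-induced death of HEK293 cells.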

[2] = tested on: Trypanosoma brucei Lister 427 VSG221 with APOL1 G0 recombinant protein; assay: APOL1 G0 trypanosome cell rescue assay (Example B5); format: cell-based; settings: Trypanosoma brucei, 20 h, read-out: APOL1 G0 Trypanosome Rescue EC50, Trypanosoma brucei Lister 427 VSG221 with APOL1 G0 recombinant protein, 20 hours, CellTiter-Glo; geometric mean of at least 2 assay runs; † = single assay run
Method in brief: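 Recombinant APOL1 protein, dispensed from a 2 μg/mL stock, and 250 T. brucei per well were co-incubated with test compound (0.4% DMSO) for 20 h. Viability: CellTiter-Glo luminescence.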

Row | SMILES | EC50 [1] | EC50 [2]
1 | CS(=O)(=O)c1ccc(OCCN2CCC3(CC2)C(=O)N(CCO)c2ccc(C#N)cc23)cc1C(F)F [Compound 266, 1′-{2-[3-(difluoromethyl)-4-methanesulfonylphenoxy]ethyl}-1-(2-hydroxyethyl)-2-oxo-1,2-dihydrospiro[indole-3,4′-piperidine]-5-carbonitrile] | 104 nM | 236 nM
2 | O=C1Nc2ccc(Cl)cc2C12CCN(CCOc1ccc(S(=O)(=O)C3(CO)CC3)cc1)CC2 [Compound 225, 5-chloro-1′-[2-(4-{[1-(hydroxymethyl)cyclopropyl]sulfonyl}phenoxy)ethyl]-1,2-dihydrospiro[indole-3,4′-piperidin]-2-one] | 32.6 nM | 35.2 nM
3 | CS(=O)(=O)C1CN(C(=O)c2ccc(OCCN3CCC4(CC3)C(=O)Nc3ccc(Cl)cc34)cc2F)C1 [Compound 233, 5-chloro-1′-{2-[3-fluoro-4-(3-methanesulfonyl-azetidine-1-carbonyl)phenoxy]ethyl}-1,2-dihydrospiro[indole-3,4′-piperidin]-2-one] | 57.7 nM | 81.7 nM
4 | CS(=O)(=O)NC1CN(C(=O)c2ccc(OCCN3CCC4(CC3)C(=O)Nc3ccc(Cl)cc34)cc2F)C1 [Compound 237, N-{1-[4-(2-{5-chloro-2-oxo-1,2-dihydrospiro[indole-3,4′-piperidin]-1′-yl}ethoxy)-2-fluorobenzoyl]azetidin-3-yl} methanesulfonamide] | 238 nM | 132 nM
5 | O=C1Nc2ccc(Cl)cc2C12CCN(CCOc1ccc(S(=O)(=O)[C@H]3C[C@H](O)C3)cc1)CC2 [Compound 215, 5-chloro-1′-[2-(4-{[(trans)-3-hydroxycyclobutyl]sulfonyl}phenoxy)ethyl]-1,2-dihydrospiro[indole-3,4′-piperidin]-2-one] | 79.8 nM | 70.1 nM
6 | CS(=O)(=O)C1(c2ncc(OCCN3CCC4(CC3)C(=O)Nc3ccc(C#N)cc34)cc2F)CC1 [Compound 283, 1′-(2-{[5-fluoro-6-(1-methanesulfonylcyclopropyl)pyridin-3-yl]oxy}ethyl)-2-oxo-1,2-dihydrospiro[indole-3,4′-piperidine]-5-carbonitrile] | 99 nM | 216 nM
7 | O=C1CCc2cc(OCCN3CCC4(CC3)C(=O)Nc3ccc(Cl)cc34)ccc2N1[C@H]1C[C@H](O)C1 [Compound 224, 5-chloro-1′-[2-({2-oxo-1-[(trans)-3-hydroxycyclobutyl]-1,2,3,4-tetrahydroquinolin-6-yl}oxy)ethyl]-1,2-dihydrospiro[indole-3,4′-piperidin]-2-one] | 38.6 nM | 66 nM
